Measurements: patent publication US9163007B2, “5-substituted indazoles as kinase inhibitors” (AbbVie Inc., priority 2007, dated 2015)
pEC50: −log10 of the molar value. Like-named read-outs stand apart in the source and are kept apart here.

What was measured:
Cdc7/Dbf4 = Cdc7/Dbf4 (Homo sapiens (Human), UniProt O00311); experiment: Cdc7 Inhibition Assay; assay type: biochemical;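 note: reaction mixtures incubated 30 min on streptavidin-coated plates, then quantified by scintillation counting, with inhibition curves fitted by non-linear regression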
Procedure: The reactions were incubated for 30 minutes on streptavidin-coated plates, washed, and quantified using a TopCount scintillation plate reader (Packard). IC50 values are determined via non-linear regression fitting of the data.

[1] = system: phospho-MCM2 Ser53 in HCT-116 cells; experiment: Phospho-MCM2 ELISA; assay type: cell-based; details: Homo sapiens, treated 6 hours
Procedure: HCT-116 cells (20,000/well; 96-well format) were treated for 6 hours with increasing concentrations of compounds (0.01-10 μM in half-log increments). After removing the medium/inhibitor, the cells were frozen for 5 minutes and treated on ice with 20 μL of lysis buffer (Invitrogen #FNN0011) for 30 minutes. 80 μL of cold 2% BSA (in PBS) were then added to each well before transferring 80 μL to MCM2 antibody-coated plates (Bethyl #A300-122A, lot A300-122A-1). The plates were incubated overnight at 4° C., washed, and then incubated with the sandwich antibody (1:100 rabbit anti-human phospho-MCM2 Ser53; Bethyl #A300-756A, lot A300-756A-2) for 2 hours at room temperature. After another series of washes the samples are incubated for 1 hour with detection antibody (XSA-grade goat anti-rabbit-HRP, KPL #074-15-061, lot 50884, diluted to 2 μg/mL in 2% BSA). Plates were washed, developed using luminescence substrate (SuperSignal Pico for ELISA, Pierce #37069, Lot. HB101408), and read on a Molecular Devices M5 luminometer.

HCT-116 cells = experiment: AlamarBlue Cell Viability Assays; assay type: cell-based; details: Homo sapiens, treated 72 hours
Procedure: AlamarBlue Cell Viability Assays
HCT-116 cells (3,000/well; 96-well format) were treated for 72 hours with increasing concentrations of compounds (0.01-30 μM in half-log increments). The cells were then incubated in fresh media with 10% AlamarBlue reagent (Invitrogen #DAL1100). AlamarBlue reactions were incubated according to the manufacturer's instructions (approximately 4 hours) and then analyzed using an fmax fluorescence microplate reader (Molecular Devices) using excitation/emission wavelengths of 544/595 nm. Data were analyzed using SOFTmax PRO software provided by the manufacturer.

[2] = 11 data point, read-out: Ki (μM) 11 data point
[3] = 6 data point, read-out: Ki (μM) 6 data point

Sequence of Cdc7/Dbf4 (O00311 whole entry): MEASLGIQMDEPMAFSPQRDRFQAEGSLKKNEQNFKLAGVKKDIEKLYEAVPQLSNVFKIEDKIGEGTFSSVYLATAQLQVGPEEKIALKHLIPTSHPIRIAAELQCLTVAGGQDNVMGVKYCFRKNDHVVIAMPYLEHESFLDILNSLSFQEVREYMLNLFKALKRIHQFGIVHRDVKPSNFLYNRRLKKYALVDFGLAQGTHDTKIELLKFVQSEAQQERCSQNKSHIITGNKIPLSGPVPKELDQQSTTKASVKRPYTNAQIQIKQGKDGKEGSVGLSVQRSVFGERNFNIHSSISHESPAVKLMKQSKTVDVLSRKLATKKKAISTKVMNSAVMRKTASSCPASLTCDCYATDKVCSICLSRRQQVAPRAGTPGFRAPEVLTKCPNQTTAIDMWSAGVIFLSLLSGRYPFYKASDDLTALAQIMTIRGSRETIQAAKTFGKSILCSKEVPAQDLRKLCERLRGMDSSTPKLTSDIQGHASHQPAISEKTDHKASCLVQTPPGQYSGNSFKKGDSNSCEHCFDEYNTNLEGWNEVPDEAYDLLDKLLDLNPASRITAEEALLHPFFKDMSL
Sequence of Cdc7/Dbf4 (Q9UBU7 whole entry partner): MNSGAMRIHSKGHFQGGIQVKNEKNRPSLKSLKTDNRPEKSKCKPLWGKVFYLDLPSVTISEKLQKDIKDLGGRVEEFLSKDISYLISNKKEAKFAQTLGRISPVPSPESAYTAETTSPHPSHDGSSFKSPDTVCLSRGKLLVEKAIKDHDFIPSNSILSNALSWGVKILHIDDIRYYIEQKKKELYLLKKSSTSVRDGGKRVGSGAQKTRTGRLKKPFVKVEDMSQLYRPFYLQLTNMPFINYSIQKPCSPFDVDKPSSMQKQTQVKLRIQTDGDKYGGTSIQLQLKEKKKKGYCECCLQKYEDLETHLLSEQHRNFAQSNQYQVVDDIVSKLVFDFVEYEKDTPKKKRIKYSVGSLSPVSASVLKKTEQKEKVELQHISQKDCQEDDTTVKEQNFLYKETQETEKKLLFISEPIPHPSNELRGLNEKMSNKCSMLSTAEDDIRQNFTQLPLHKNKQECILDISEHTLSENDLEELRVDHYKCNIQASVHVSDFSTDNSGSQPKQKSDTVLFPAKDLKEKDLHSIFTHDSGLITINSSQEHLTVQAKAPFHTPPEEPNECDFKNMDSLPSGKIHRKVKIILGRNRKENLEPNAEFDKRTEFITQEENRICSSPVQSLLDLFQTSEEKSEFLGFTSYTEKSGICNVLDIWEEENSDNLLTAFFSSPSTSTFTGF

| SMILES | Ki (Cdc7/Dbf4; [2]) | pEC50 [1] | pEC50 (HCT-116 cells) | Ki (Cdc7/Dbf4; [3]) |
| --- | --- | --- | --- | --- |
| Nc1n[nH]c2ccc(-c3nnn(Cc4ccccc4)c3-c3cccc(N4CCOCC4)c3)cc12 [Example 194, 5-[1-benzyl-5-(3-morpholin-4-ylphenyl)-1H-1,2,3-triazol-4-yl]-1H-indazol-3-amine] | 0.068 µM | < 5.00 | 5.36 | – |
| O=C(Nc1nn(C(=O)c2ccccc2)c2ccc(-c3nnn(Cc4ccccc4)c3C3CC3)cc12)c1ccccc1 [Example 204, N-[1-benzoyl-5-(1-benzyl-5-cyclopropyl-1H-1,2,3-triazol-4-yl)-1H-indazol-3-yl]benzamide] | 0.11 µM | 5.21 | 6.89 | – |
| Clc1ccccc1CNc1n[nH]c2ccc(-c3nnn(Cc4ccccc4)c3C3CC3)cc12 [Example 222, 5-(1-benzyl-5-cyclopropyl-1H-1,2,3-triazol-4-yl)-N-(2-chlorobenzyl)-1H-indazol-3-amine] | 0.093 µM | < 5.00 | 5.68 | – |
| Clc1ccc(CNc2n[nH]c3ccc(-c4nnn(Cc5ccccc5)c4C4CC4)cc23)cc1 [Example 227, 5-(1-benzyl-5-cyclopropyl-1H-1,2,3-triazol-4-yl)-N-(4-chlorobenzyl)-1H-indazol-3-amine] | 0.015 µM | < 5.00 | 5.85 | – |
| NC(=O)N(Cc1ccccc1)c1n[nH]c2ccc(-c3nnn(Cc4ccccc4)c3C3CC3)cc12 [Example 262, N-benzyl-N-[5-(1-benzyl-5-cyclopropyl-1H-1,2,3-triazol-4-yl)-1H-indazol-3-yl]urea] | 0.041 µM | < 5.00 | 5.47 | – |
| NC(=O)N(c1ccccc1Cl)c1n[nH]c2ccc(-c3nnn(Cc4ccccc4)c3C3CC3)cc12 [Example 263, N-[5-(1-benzyl-5-cyclopropyl-1H-1,2,3-triazol-4-yl)-1H-indazol-3-yl]-N-(2-chlorophenyl)urea] | 0.022 µM | < 5.00 | 5.99 | – |
| CCCN(C(N)=O)c1n[nH]c2ccc(-c3cn(Cc4ccccc4)nn3)cc12 [Example 319, N-[5-(1-benzyl-1H-1,2,3-triazol-4-yl)-1H-indazol-3-yl]-N-propylurea] | 0.068 µM | < 5.00 | 5.81 | – |

The next compounds have a lower Ki (Cdc7/Dbf4; [2]) than those just listed; values first:

| Ki (Cdc7/Dbf4; [2]) | pEC50 [1] | pEC50 (HCT-116 cells) | Ki (Cdc7/Dbf4; [3]) | SMILES |
| --- | --- | --- | --- | --- |
| 0.00225 µM | 5.24 | 5.84 | – | Cc1ccccc1-c1c(-c2ccc3[nH]nc(C)c3c2)nnn1Cc1ccccc1 [Example 162, 5-[1-benzyl-5-(2-methylphenyl)-1H-1,2,3-triazol-4-yl]-3-methyl-1H-indazole] |
| 0.00105 µM | 5.37 | 4.74 | – | Fc1ccc(-c2c(-c3ccc4[nH]ncc4c3)nnn2CC2CCOCC2)cc1 [Example 167, 5-[5-(4-fluorophenyl)-1-(tetrahydro-2H-pyran-4-ylmethyl)-1H-1,2,3-triazol-4-yl]-1H-indazole] |
| 0.0004 µM | 5.26 | 4.65 | – | CN(C)c1ccc(-c2c(-c3ccc4[nH]nc(N)c4c3)nnn2Cc2ccccc2)cc1 [Example 185, 5-{1-benzyl-5-[4-(dimethylamino)phenyl]-1H-1,2,3-triazol-4-yl}-1H-indazol-3-amine] |
| 0.0019 µM | 5.27 | 4.72 | – | Cn1cc(-c2c(-c3ccc4[nH]nc(N)c4c3)nnn2Cc2ccccc2)cn1 [Example 189, 5-[1-benzyl-5-(1-methyl-1H-pyrazol-4-yl)-1H-1,2,3-triazol-4-yl]-1H-indazol-3-amine] |
| 0.0009 µM | 5.38 | 5.54 | 0.0008 µM | O=C(Nc1n[nH]c2ccc(-c3nnn(Cc4ccccc4)c3-c3ccccc3)cc12)c1ccccc1 [Example 198, N-[5-(1-benzyl-5-phenyl-1H-1,2,3-triazol-4-yl)-1H-indazol-3-yl]benzamide] |
| 0.0024 µM | < 5.00 | 6.23 | 0.0009 µM | O=C(Nc1n[nH]c2ccc(-c3nnn(Cc4ccccc4)c3C3CC3)cc12)c1cccc(F)c1 [Example 205, N-[5-(1-benzyl-5-cyclopropyl-1H-1,2,3-triazol-4-yl)-1H-indazol-3-yl]-3-fluorobenzamide] |
